Measured values: patent US12171782B2 (priority 2020, dated 2024)

Legend:
SARS-CoV PLP = SARS-CoV PLP (Severe acute respiratory syndrome coronavirus, UniProt P0C6X7); details: cited from earlier work
3CLPro/Mpro of SARS-CoV = 3CLPro/Mpro of SARS-CoV (Severe acute respiratory syndrome coronavirus, UniProt P0C6X7); details: cited from earlier work
SARS-CoV N protein = SARS-CoV N protein (Severe acute respiratory syndrome coronavirus, UniProt P59595); details: cited from earlier work
[1] = test system: peripheral blood mononuclear cells (PBMC); assay: MTT cytotoxicity assay in PBMCs; details: different concentrations, 24 h (FIG. 17)
SARS-CoV-2 strain = details: plaque reduction neutralization test; read-out: PRNT50; cited from earlier work
PLP of SARS-CoV-2 = PLP of SARS-CoV-2 (Severe acute respiratory syndrome coronavirus 2, UniProt P0DTD1); details: cited from earlier work
[2] = test system: SARS-CoV-2 replicating virus in Vero cells; details: virus replication; cited from earlier work
[3] = test system: SARS-CoV-2 pseudotyped lentiviral vectors; details: blocked entry of pseudotyped lentiviral vectors; cited from earlier work
[4] = target: 3CLpro from the first SARS-CoV (Severe acute respiratory syndrome coronavirus, UniProt P0C6X7); details: cited from earlier work
common cold = details: after 7 days of treatment, 23 mg; placebo 46%; cited from earlier work

SARS-CoV N protein, sequence (P59595 whole entry, looked up): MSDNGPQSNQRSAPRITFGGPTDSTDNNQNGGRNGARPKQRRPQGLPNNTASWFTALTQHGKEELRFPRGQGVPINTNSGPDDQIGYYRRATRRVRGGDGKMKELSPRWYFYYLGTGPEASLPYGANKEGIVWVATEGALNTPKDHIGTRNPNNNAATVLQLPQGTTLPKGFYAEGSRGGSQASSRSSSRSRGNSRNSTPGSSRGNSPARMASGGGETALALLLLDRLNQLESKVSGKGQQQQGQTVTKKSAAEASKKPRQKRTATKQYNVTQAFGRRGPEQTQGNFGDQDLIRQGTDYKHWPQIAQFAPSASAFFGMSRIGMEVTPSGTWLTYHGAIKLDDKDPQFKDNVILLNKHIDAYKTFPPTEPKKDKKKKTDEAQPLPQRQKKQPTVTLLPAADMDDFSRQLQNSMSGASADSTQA

Q: Which “effects on the activity of PLP” value (SARS-CoV PLP) does the source give for [Ca+2] [Ca] here?
A: no effects

Q: Which “effects on the activity of PLP” value (SARS-CoV PLP) does the source give for [Co+2] [Co] here?
A: no effects

Q: For [Mg] [Mg], which “effects on the activity of PLP” value (SARS-CoV PLP) is on record?
A: no effects

Q: Which “effects on the activity of PLP” value (SARS-CoV PLP) does the source give for [Mn] [Mn] here?
A: no effects

Q: With [Ni] [Ni] as the molecule, how does the “effects on the activity of PLP” value (SARS-CoV PLP) read?
A: no effects

Q: For [Zn+2] [Zn^2+], which Ki (3CLPro/Mpro of SARS-CoV) is on record?
A: 1.1 µM

Q: And the IC50 (SARS-CoV PLP)?
A: 1.3 µM

Q: Which IC50 (SARS-CoV N protein) does the source give for (−)-gallocatechin gallate here?
A: 0.05 mg/L

Q: For Epigallocatechin-3-gallate [EGCG], which cell viability [1] is on record?
A: a decrease in viability

Q: And the EC50 (SARS-CoV-2 strain)?
A: 0.2 µM

Q: What about the “binding affinity to PLP core structure” value (PLP of SARS-CoV-2) of the same molecule?
A: highest binding affinity

Q: What about the IC50 [2] of the same molecule?
A: 1.73 mg/L

Q: What about the IC50 [3] of the same molecule?
A: 2.47 mg/L

Q: And the IC50 [4]?
A: 73 µM

Q: And the “inhibition of the recombinant 3CLpro/Mpro” value [4]?
A: over 85%

Q: Which IC50 (SARS-CoV PLP) does the source give for N-ethyl-N-phenyl-dithio-carbamate-Zinc here?
A: 3.3 µM

Q: With Zinc gluconate as the molecule, how does the subjects asymptomatic (common cold) read?
A: 86%
